According to patent publication US10725042B2, “Methods of diagnosing and treating cancer” (Case Western Reserve University, priority 2012, dated 2020):

Columns and labels:
[1] = system: A549 lung cancer xenografts; test: A549 xenograft tumors in nude mice; assay type: in vivo; conditions: A549 tumours; pemetrexed 150 mg/kg, MX 4 mg/kg, i.p. daily for 5 days
Procedure: (§1) H460 or A549 tumor cells (5×10^6) were injected into bilateral flanks of female athymic NCr (nu/nu) mice (6 weeks old). When the tumor volumes reached 100-150 mm3, mice were divided into control and treatment groups (6-9 mice/group). Nude mice carrying tumors were treated with pemetrexed (150 mg/kg) alone, MX (4 mg/kg) alone or the combination of the two agents, by daily intraperitonial injection (i.p.) for 5 consecutive days. Tumor measurements were taken every 2 days. Tumor responses were quantified by tumor volume.

[2] = system: H460 xenografts; test: H460 xenograft tumors in nude mice; assay type: in vivo; conditions: pemetrexed 150 mg/kg, MX 4 mg/kg, i.p. daily for 5 days
Procedure: as §1

[3] = system: AP sites in DNA of H460 cells; test: AP site assay (ARP), H460 cells; assay type: cell-based, human; conditions: pemetrexed 0-400 nM, MX 6 mM, 24 hrs
Procedure: The number of AP sites was measured using ARP (aldehyde reactive probe) reagent. The assay was performed as previously described. Briefly, cells (2×10^6) were collected after drug treatment and DNA was extracted. DNA (10 μg) was incubated with 15 μl of 1 mM ARP (Dojindo Laboratories, Kumamoto, Japan), and then precipitated and washed with ice-cold ethanol. The ARP-labeled DNA was then heat-denatured at 100° C. for 5 min, quickly chilled on ice and mixed with an equal volume of 2 M ammonium acetate. The DNA was then immobilized on a BA-S 85 nitrocellulose membrane (Schleicher and Schuell, Dassel, Germany) using a minifold II vacuum filter device (Schleicher and Schuell, Dassel, Germany). The membrane was incubated with 0.25% BSA-PBS containing streptavidin-conjugated horseradish peroxidase (BioGenex, SanRamon, Calif.) at room temperature for 40 min with gentle shaking. ARP-labeled AP sites were visualized by chemiluminescence (Amersham Corp, Piscataway, N.J.) followed by quantitative densitometry using NIH Image J software.

[4] = system: H460 cells; test: Clonogenic survival assay, H460 cells; assay type: cell-based; conditions: Homo sapiens, NCI-H460, read-out: IC50 values for pemetrexed
Procedure: Tumor cells (500-2000/dish) were plated and treated with pemetrexed (0-400 nM), 5-fluorouracil (0-20 μM), temozolomide (0-1500 μM), or cisplatin (0-40 μM). After 7 days, surviving colonies were stained with methylene blue for 30 min at room temperature and the colonies containing more than 50 cells were counted to generate survival curves.

[5] = system: UNG expression in H460 cells; test: UNG protein and transcript expression after acute pemetrexed exposure, H460; assay type: cell-based, human; conditions: acute pemetrexed exposure 0-200 nM
Procedure: Protein extracts (25 μg) were resolved by SDS-PAGE and transferred to PVDF membrane (Millipore). Non-specific binding sites were blocked in 5% milk in PBST (1×PBS+0.1% Tween-20). Incubation with primary antibody at 4° C. in 5% BSA/PBS was followed by incubation with HRP-conjugated secondary antibody in 2.5% milk in PBST. Proteins were visualized with ECL reagent (Amersham Corp). Chromatinbound proteins were extracted from formaldehyde (1%) cross-linked cells using Pierce Chromatin Prep Module (Thermo Pierce). Antibody sources: UNG-23936 (39 kDa band, nuclear UNG) and PCNA (Abcam); Tubulin (Calbiochem); γH2AX and Histone-H3 (Millipore); Cleaved PARP (Cell Signaling); and p-chk1, chk1, cdc2, and p-cdc2 (Santa Cruz).
Lung cancer cDNA microarray was purchased from Origene. For cell lines, total RNA was extracted from cells using RNAqueous-4PCR kit (Ambion, Austin, Tex.). Random hexamers (Invitrogen) were used to PCR amplify cDNA from 1 μg of RNA extract. TaqMAN MGB probes (FAMTM dye labeled, Applied Biosystems) for nuclear UNG (UNG2), SMUG1, MBD4, TDG, TYMS and βPol amplified cDNA using 40 cycles of PCR in an ABI 7500 Fast Real-Time PCR System (Applied Biosystems, Foster City, Calif.). Target quantification was achieved after normalization to β-actin amplification as an endogenous control and is presented as relative quantification (RQ) values or log-mean RQ values.

[6] = system: H1299/PR-2 cells; test: Colony survival assay, H1299/PR-2 pemetrexed-resistant subline; assay type: cell-based, human; conditions: PR-2 vs H1299 parental
Procedure: For cells in suspension, colony survival was determined by crystal violet staining of colonies formed after 10-day exposure of 5×10^3 cells to pemetrexed in soft agar. For adherent cells, colony survival was determined by methylene blue staining of colonies formed after 10-day exposure of 100 cells to pemetrexed in 6-well culture dishes. Only colonies containing ≥50 cells were counted. Data points represent percent of colonies relative to untreated control averaged over 3 experiments.
H1299 cells were exposed to step-wise increasing concentrations of pemetrexed over a period of 4 months. UNG expression was monitored in the bulk population at 2, 8, 12 and 16 weeks prior to administration of the induction dosage and at 24 weeks in a population of bulk chronically exposed cells that had been without pemetrexed for 8 weeks. H1299 cells capable of growth in 50 nM pemetrexed selection pressure were subcloned by limiting dilution in 96 well plates. Independent sublines were designated H1299/PR-1 and H1299/PR-2.

[7] = system: DLD1 UDG+/+ cells; test: Colony survival (clonogenic) assay, UDG+/+ cells; assay type: cell-based; conditions: Homo sapiens, DLD-1, interpolated from dose-response survival curves, read-out: IC50 value for pemetrexed
[8] = treatment of lung cancer; cited from earlier work
[9] = system: H1975 shUNG cells; test: PCNA dissociation by bi-parametric flow cytometry, H1975 shUNG cells; assay type: cell-based, human; conditions: 25 nM pemetrexed
Procedure: Propidium iodine (PI) staining of methanol fixed cells was for cell cycle determinations. Where indicated, FITC labeled PCNA antibody (PCNA-FITC, Abcam) was added for PCNA detection. Uni-parameter (PI-only) and dual-parameter (PI+PCNA-FITC) analysis was performed on a Coulter flow cytometer (EPICS-XL-MCL). Cell cycle histograms (PI) and PCNA dot plots (PCNA-FITC) were de-convoluted from ≥20,000 events using FlowJo software.
Prolonged S-phase arrest is known to result in DNA DSB formation due to the collapse of stalled replication forks. We evaluated the stability of the DNA replication fork in pemetrexed treated lung cancer cells with native and reduced levels of UNG protein. Nucleotide incorporation experiments using CldU and IdU indicate decreased postpemetrexed treatment nucleotide incorporation (data not shown). […] Using bi-parametric flow cytometry we measured the dissociation of the replication fork processivity factor, PCNA at the single cell level in H1975 cells expressing UNG directed shRNA. Similar assays have been utilized to detect replication fork disassembly following etoposide and hydroxyurea exposure. PCNA dissociation was determined by the percentage of cells in S phase having low PCNA (red box, FIG. 11d). […] As a complimentary experiment, we examined the expression of chromatin-bound PCNA after pemetrexed treatment by western blot of chromatin cellular extracts.

Nc1nc2[nH]cc(CCc3ccc(C(=O)N[C@@H](CCC(=O)O)C(=O)O)cc3)c2c(=O)[nH]1 [pemetrexed]
antitumour activity [1]: moderately sensitive | antitumour activity ([2]; H460 tumours): moderately sensitive | mean tumour volume ([2]; H460 xenografts at 15 days, PBS control 2100±106): 1726±176 mm3 | ARP-detected AP sites [3]: increased as the concentration of pemetrexed increased | IC50 [4]: 110 nM | UNG protein and transcript expression [5]: time- and dosedependent induction | relative resistance to pemetrexed compared to parental cells [6]: 71 fold | IC50 [7]: 210 nM | response rate [8]: 30-40% | cells in S phase having low PCNA ([9]; 6 hours): 3.88±0.93% | cells in S phase having low PCNA ([9]; 24 hours): 7.81±1.19%
